We go through 19 molecules from patent US5952189A (priority 1997, dated 1999).

The test system of data set [1] is U937 cells. In words: cells. The format is cell-based, human.
A further data set relates to BT-20. Format: cell-based, human. As to conditions: for % DNA fragmentation: BT-20, inhibitor 100 μM, UV 0.5 J/cm^2, 8 h, no inhibitor 44 ± 3.6; for Effect on UV-induced DNA fragmentation: summary of Table 2 (BT-20, 3T3, HL-60).
A further data set deals with 3T3. The experiment in a line: Inhibition of UV-induced DNA fragmentation in 3T3 cells. Conditions: inhibitor 100 μM, UV 0.5 J/cm^2, 8 h, no inhibitor 38 ± 1.9. Format: cell-based, murine. How it is done: To determine if these findings were unique to U937 or if other cell lines also require protease activity to undergo apoptosis, the effects of several inhibitors on apoptosis induced by UV light in the human mammary carcinoma, BT-20, the murine fibroblast cell line, 3T3, and the human myeloid leukemia, HL-60 were tested. For the BT-20 and 3T3 cells, target cells were pretreated for one hour (with or without inhibitors as indicated in the table) and exposed to UV light at 0.5 J/cm^2 and then incubated for eight hours prior to assessing DNA fragmentation. HL-60 cells were pretreated for one hour (with or without inhibitors as indicated in the table) and exposed to UV at 0.2 J/cm^2 and then incubated for two hours prior to assessing DNA fragmentation.
DNA fragmentation assays were carried out according to the protocol of Wright S. C., et al. (1,992) J. Cell. Biochem. 48, 344-355. Target cells were labeled with ^3 H-thymidine and plated in triplicate in flat bottom microtiter plates. Cells were incubated for the indicated length of time for each experiment in the presence of TNF or various inhibitors. In some experiments, cells were treated with UV light at 245 nm using a UV Crosslinker (Fisher Scientific). Assays were harvested and counted on a Packard matrix 96 beta counter. Percent DNA fragmentation was calculated as for the nuclear assay described in Example 3. In assays to test the effects of various inhibitors, the pH of extra wells containing assay buffer, target cells, and each inhibitor was always checked at the beginning and end of each assay to assure that the pH remained at 7.5.

The subject of data set [2] is U937 cells. As to conditions: cited from earlier work.
Data set [3] concerns LPS-induced hepatotoxicity.
For data set [4], the system named is TNF-induced hepatocyte apoptosis. The experiment in a line: TNF-induced hepatotoxicity in mice (serum transaminases). The format is in vivo, Balb/c mice. How it is done:
In this example the concept that a protease inhibitor such as DK120 may attenuate inappropriate apoptosis that causes tissue damage in systemic inflammatory response syndrome (SIRS) was tested. TNF-induced hepatocyte apoptosis in mice was performed as described by Leist et al. ((1995) J. Immunol. 154:1778-1786). Briefly, Balb/c mice were injected ip with […] murine TNF combined with […] Actinomycin D/mouse. Twelve h later, mice were anesthetized and bled from the heart to measure serum transaminase levels, which are standard clinically used indicators of liver damage. Mice that were treated with protease inhibitors were injected ip with these compounds 30 min. prior to TNF. Alanine aminotransferase (ALT) and aspartate aminotransferase (AST) were assayed using a commercially available kit (Sigma). […] However, treatment with DK120 caused a doss-dependent decrease in serum transaminase levels. […] However, a drug that nonspecifically blocks all apoptotic pathways that normally function to maintain homeostasis may not be clinically desirable. Subsequent studies were performed to determine if DK120 could also suppress hepatocyte apoptosis in response to a different stimulus.
^1 Mice (2 for each treatment) were injected ip +/- DK120 30 min prio
to TNF and Actinomycin D. Twelve h later serum transaminase levels were
(§1) To further explore the specificity of DK120 attenuation of TNF-induced hepatotoxicity, several compounds were tested that were found previously not to inhibit apoptotic protease proteolytic activity as measured against a synthetic substrate (data not shown). […] Therefore, the protection mediated by DK120 is not a property of any boron-containing molecule.
^1 Mice (3 for each treatment) were injected ip +/- the inhibitors 30
min prior to TNF and Actinomycin D. Twelve h later serum transaminase

The test system of the next data set is apoptotic protease. In words: Inhibition of apoptotic protease proteolytic activity against a synthetic substrate. Format: biochemical, human. Conditions: data not shown. Here is the method: Proteolytic activity was assayed using synthetic substrates selective for different known proteases. All assays were set up by adding 0.02 ml of sample (or known enzyme as a positive control) plus 0.18 ml of appropriate substrate dissolved in PBS PH 7.5 in triplicate in flat bottom microtiter plates, incubated for the indicated length of time at room temperature, and the OD at 405 nm measured using a plate reader.
Elastase-like activity was measured using N-methoxysuccinyl-ala-ala-pro-valp-nitroanilide (SEQ ID NO: 3) (MAAPV) at 0.25 mM as a substrate. For convenience and maximum sensitivity, these assays were routinely incubated 20 h to monitor protease purification. Under these conditions, the elastase dose response was linear up to a concentration of 6.0 μg/ml (OD of 1.0), see FIG. 3C. […] In order to quantitate the activity of the purified protease, identical assays were set up but kinetic readings of OD were taken every hour from 1-6 h. One unit of enzyme was calculated as the amount of enzyme that hydrolyzes 1.0 nmol substrate/h.
as §1

Data set [5] deals with isolated U937 nuclei. The experiment in a line: DNA fragmentation assay using isolated U937 nuclei. Conditions: concentrations as high as 0.1 mg/ml (FIG. 6A). The format is cell-based, human. Here is the method:
U937 cells were labeled with ^3 H-thymidine by culturing overnight with isotope at 0.5 μCi/ml. The cells were pelleted, washed once, and the cytoplasmic membrane lysed by resuspending the cells in assay buffer (50 mM Tris, 250 mM sucrose 10 mM MgSO4, pH 7.5) plus 0.02% NP-40. Nuclei were then pelleted and resuspended in assay buffer at 1×10^6 /ml. The assay was set up in triplicate in flat bottom microtiter plates under sterile conditions. Nuclei (0.05 ml) were mixed with 0.05 ml of sample diluted in 50 mM Tris pH 7.5 or buffer alone to determine total counts. Plates were incubated for 5 h at 37° C. and then harvested by the addition of 0.1 ml of harvesting buffer (10 mM Tris, 10 mM EDTA, 0.3% Triton X-100, pH 7.5). Plates were harvested by filtration onto glass fiber paper and counted on a Packard Matrix 96 beta counter. Percent DNA fragmentation was calculated as follows: […]

The nature of data set [6]: Binding to DK120 affinity column. Conditions: eluted with 0.1 M HCl.
Data set [7] is described as follows: Chymotrypsin-like activity on SAAPP substrate. Format: biochemical. Conditions: eluted from DK120 column. Here is the method: To purify the apoptotic protease, a DK120 affinity column was prepared.
To measure chymotrypsin-like activity, N-succinyl-ala-ala-pro-phe p-nitroanilide (SEQ ID NO: 2) (SAAPP) at 0.1 mM was used as the substrate. Trypsin-like activity was measured using N-α-benzyloxycarbonyl-L-lysine thiobenzyl ester (BLT) at 0.2 mM plus 0.11 mM […].

Data set [8] concerns isolated U937 nuclei. The experiment in a line: Gel electrophoresis of DNA fragmentation in isolated U937 nuclei. The format is cell-based, human.

Entries after “also recorded” stand apart in the source; their conditions may differ. Read-outs that look alike come from different tables or passages of the source. Starred links: 1 amine or outer side, 2 acyl side, 3 side chain; linkers in the order of their positions; H or OH if unused. Positions of bridges follow the written chain, without caps; N, C: chain ends. Non-standard residues stand in square brackets, D forms with d. Residues, ends and D or L forms follow the SMILES beside them. Chains are numbered I, II in the order given. Actinocin(9to1) = Cc1c2oc3c(C)ccc(C(=O)[*:1])c3nc-2c(C(=O)[*:2])c(N)c1=O; NMeV = CN[C@H](C(=O)O)C(C)C; Sar = CNCC(=O)O

Regarding `CC(C)CC(NC(=O)C1OC1C(=O)O)C(=O)NCCCCN=C(N)N` (centres unmarked) [E64], the “Effect on DNA fragmentation induced by TNF or UV light” value (from here on “Effect on DNA fragmentation induced”) with U937 cells [1] (U937 cells, result in words) was “inactive”. Further, the “% DNA fragmentation” value is given as 41 ± 5.6% in the data set on BT-20 and 42 ± 2.7% in the data set with 3T3. In addition, the “Effect on UV-induced DNA fragmentation” value in the data set with BT-20 was “inactive”.
Consider `CC(=O)NC(Cc1ccccc1)C(=O)Oc1ccc2ccccc2c1` (racemic) [APNE, N-acetyl-DL-Phenylalanine β-naphthyl ester], for which the IC50 with U937 cells [1] (Homo sapiens, U-937, read-out: IC50 (Active Concentration), TNF and UV-light induced apoptosis) was found to be 40 µM. For the same molecule, in the data set on U937 cells [1] (U937 cells, result in words), the “Effect on DNA fragmentation induced” value is given as “blocked DNA fragmentation”.
With `COC(=O)[C@H](CCCNC(=N)N)NS(=O)(=O)c1ccc(C)cc1` [TAME, p-toluene-sulfonyl-L-arginine methyl ester], the “Effect on DNA fragmentation induced” value in the data set on U937 cells [1] (U937 cells, result in words) was “without effect”.
Still for that read-out and setting: next, `CCN1C(=O)C=CC1=O` [N-ethylmaleimide]: “inactive”.
Consider `CCCCCCCCCCCCCC(=O)O[C@@H]1[C@@H](C)[C@@]2(O)[C@@H](C=C(CO)C[C@]3(O)C(=O)C(C)=C[C@@H]23)[C@@H]2C(C)(C)[C@]12OC(C)=O` [Phorbol myristate acetate (PMA), Phorbol myristate acetate], for which the “Effect on apoptosis” value in the data set with U937 cells [2] is on record as “inhibits apoptosis induced by TNF or UV light”.
As for `N[C@H]1C(O)O[C@H](CO)[C@H](O)[C@@H]1O` (some centres unmarked) [Gln, galactosamine], in [3] (Gln 15 mg alone, survivors), the ALT is reported as 137 +/- 33 U/ml and the AST was 67 +/- 4.6 U/ml. Besides, the “% Mortality” value in data set [3] (mouse, in vivo) is reported as 0%.
Regarding `N=C(N)c1ccccc1` [Benzamidine], in the data set on U937 cells [1] (U937 cells, result in words), the “Effect on DNA fragmentation induced” value is given as “without effect”.
Consider Aprotinin, for which, in [4] (Table 10, 10 mg/kg), the “Protection from TNF-induced hepatotoxicity” value is “neither of these inhibitors had much effect on ALT levels”. The ALT in data set [4] (mouse, in vivo) was 346 +/- 14 U/ml. In addition, the “Inhibition of apoptotic protease proteolytic activity” value with apoptotic protease is listed as “do not inhibit apoptotic protease”.
For `CC(C)C[C@H](NC(=O)[C@@H](O)[C@H](N)Cc1ccccc1)C(=O)O` [Bestatin], the “Effect on DNA fragmentation induced” value in the data set with U937 cells [1] (U937 cells, result in words) was “inactive”.
Regarding `NC(=O)c1cccc(N)c1` [3-aminobenzamide], the “Effect on apoptosis” value in the data set on U937 cells [2] is on record as “blocked”.
In the case of chymotrypsin, the “DNA fragmentation in isolated nuclei by commercial proteases” value (from here on “DNA fragmentation in isolated nuclei”) with isolated U937 nuclei [5] was “completely inactive”. Besides, the “Binding to DK120 affinity matrix” value in data set [6] was “efficiently bound”. The “Protease activity on SAAPP substrate after elution and neutralization” value in data set [7] is “high levels of protease activity”.
On to `CC(C)C[C@H](NC(=O)[C@@H](NC(=O)N[C@@H](Cc1ccccc1)C(=O)O)[C@@H]1CCN=C(N)N1)C(=O)N[C@H](C=O)Cc1ccccc1` [Chymostatin], for which the “Effect on DNA fragmentation induced” value in the data set on U937 cells [1] (U937 cells, result in words) was “without effect”.
Consider trypsin, for which the “DNA fragmentation in isolated nuclei” value in the data set on isolated U937 nuclei [5] was “completely inactive”.
Take `O=S(=O)(F)Cc1ccccc1` [PMSF, phenylmethylsulfonylfluoride]: in the data set on U937 cells [1], the “Effect on DNA fragmentation induced” value was “not inhibited; also recorded: without effect” and the “Inactive Compounds, Highest Concentration Tested (highest nontoxic concentration, inactive)” value was 100 µM.
For `CC(=O)N[C@@H](CC(C)C)C(=O)N[C@@H](CC(C)C)C(=O)N[C@H](C=O)CCCNC(=N)N` [Leupeptin], the “Effect on DNA fragmentation induced” value with U937 cells [1] (U937 cells, result in words) is recorded as “without effect”. For the same molecule, in the data set with BT-20, the “% DNA fragmentation” value was 42 ± 5.6% and the “Effect on UV-induced DNA fragmentation” value was “inactive”. In addition, the “% DNA fragmentation” value with 3T3 amounted to 36 ± 2.6%.
With `Cc1c2oc3c(C)ccc(C(=O)N[C@@H]4C(=O)N[C@H](C(C)C)C(=O)N5CCC[C@H]5C(=O)N(C)CC(=O)N(C)[C@@H](C(C)C)C(=O)O[C@@H]4C)c3nc-2c(C(=O)N[C@@H]2C(=O)N[C@H](C(C)C)C(=O)N3CCC[C@H]3C(=O)N(C)CC(=O)N(C)[C@@H](C(C)C)C(=O)O[C@@H]2C)c(N)c1=O` [Actinomycin D] (I: T[dV]P[Sar][NMeV] / II: T[dV]P[Sar][NMeV]; ester I:1-I:C, II:1-II:C; linker I:N-II:N via Actinocin(9to1)), the ALT in data set [4] (Table 7, Actinomycin D 15 mg alone, 12 h, none 39) is reported as 70 U/ml; in data set [4] (Table 10 Exp. #1, Actinomycin D 15 mg alone, 12 h), 71 +/- 8.5 U/ml; in [4] (Table 10 Exp. #2, Actinomycin D 15 mg alone, 12 h) it was 139 +/- 29 U/ml. The molecule also came in with an AST in data set [4] (Table 7, Actinomycin D 15 mg alone, 12 h, none 51) of 47 U/ml.
For `Cc1ccc(S(=O)(=O)N[C@@H](CCCCN)C(=O)CCl)cc1` [TLCK, N-α-p-tosyl-L-lysine-chloromethyl ketone], in the data set with U937 cells [1] (U937 cells, result in words), the “Effect on DNA fragmentation induced” value is reported as “without effect”.
With “α1-anti-protease: α1-anti-protease, protease inhibitor”, in the data set with isolated U937 nuclei [8] (FIG. 5, lane 4), the “DNA of nuclei treated with compound alone, gel” value was “remained in high molecular weight form”. The “Effect on protease-induced DNA fragmentation, gel” value in the data set with isolated U937 nuclei [8] (protease pretreated 1 hr (FIG. 5, lane 3)) is reported as “DNA fragmentation was abolished”.

B1: leukocyte elastase: human leukocyte elastase obtained from Calbiochem (protein, UniProt P08246 30-267, looked up)
Neutrophil elastase: IVGGRRARPHAWPFMVSLQLRGGHFCGATLIAPNFVMSAAHCVANVNVRAVRVVLGAHNLSRREPTRQVFAVQRIFENGYDPVNLLNDIVILQLNGSATINANVQVAQLPAQGRRLGNGVQCLAMGWGLLGRNRGIASVLQELNVTVVTSLCRRSNVCTLVRGRQAGVCFGDSGSPLVCNGLIHGIASFVRGGCASGLYPDAFAPVAQFVNWIDSIIQRSEDNPCPHPRDPDPASRTH
B1: the “DNA fragmentation in isolated nuclei” value was “cannot induce DNA fragmentation in U937 nuclei” in the data set on isolated U937 nuclei [5] and “completely inactive” in the data set on isolated U937 nuclei [5] (listed as elastase).
